Measurements published in patent US20250263415A1, “TERTIARY AMIDE DERIVATIVES SUBSTITUTED WITH 4-MEMBERED RING STRUCTURE” (Sumitomo Pharma Co., Ltd., priority 2024, published 2025).

How the values were obtained:
[1] = system: G-401 xenograft; test: Drug efficacy evaluation by oral administration using G-401 xenograft model mice; assay type: in vivo
Method: (§1) G-401 cells (ATCC) were intradermally transplanted into 4-7-week-old BALB/cAnNCrj-nu/nu mice (CAnN.Cg-Foxnl/CrlCrlj, Jackson Laboratory Japan) at 5×10^5 cells/mouse. After confirming the engraftment of G-401 cells 10-40 days after transplantation, the test compound suspended in a solvent such as 0.5% methylcellulose solution was orally administered twice a day at a dose of 1-100 mg/kg. The tumor volume was measured over time from the start of administration, and the effect of tumor volume reduction by administration of the test compound was evaluated. The tumor volume can be calculated from the following equation using the minor axis and major axis of the tumor measured with an electronic caliper (Mitutoyo).
A control administration group administered with only a solvent such as 0.5% methylcellulose solution and a test compound administration group were compared, and the antitumor effect was evaluated by calculating T/C from the following equation.

[2] = molecular target: hDAT (Homo sapiens (Human), UniProt Q01959); test: Dopamine receptor inhibitory activity evaluation (binding assay, CHO-S/hDAT membranes); conditions: off-target
hDAT, sequence (Q01959 whole entry): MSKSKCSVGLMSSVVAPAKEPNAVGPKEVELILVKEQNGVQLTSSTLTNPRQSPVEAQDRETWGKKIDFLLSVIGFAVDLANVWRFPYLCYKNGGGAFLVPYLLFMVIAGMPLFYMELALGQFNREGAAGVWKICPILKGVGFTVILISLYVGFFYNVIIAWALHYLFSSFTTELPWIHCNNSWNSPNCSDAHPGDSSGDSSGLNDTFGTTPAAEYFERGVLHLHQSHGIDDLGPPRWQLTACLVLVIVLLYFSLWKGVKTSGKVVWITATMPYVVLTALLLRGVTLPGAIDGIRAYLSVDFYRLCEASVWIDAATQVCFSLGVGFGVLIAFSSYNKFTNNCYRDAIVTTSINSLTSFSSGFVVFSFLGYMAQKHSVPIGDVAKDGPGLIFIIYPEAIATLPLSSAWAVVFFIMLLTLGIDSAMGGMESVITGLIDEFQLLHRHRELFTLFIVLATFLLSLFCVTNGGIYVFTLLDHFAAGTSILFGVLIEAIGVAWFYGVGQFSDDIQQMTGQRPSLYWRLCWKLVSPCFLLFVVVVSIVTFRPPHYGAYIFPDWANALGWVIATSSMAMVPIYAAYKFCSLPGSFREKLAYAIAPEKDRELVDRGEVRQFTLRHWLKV
Method: The binding evaluation assay was outsourced to Eurofins. Specifically, CHO—S/hDAT cells were homogenized in an incubation buffer consisting of 50 mmol/L Tris-HCl, pH 7.4, 100 mmol/L NaCl, 1 μmol/L Leupeptin, and 10 μmol/L PMSF. The membrane pellet obtained by centrifugation was resuspended in the incubation buffer to prepare a membrane preparation. The test compound (1-10 μmol/L DMSO solution), the membrane preparation, and 0.15 nmol/L […] were mixed and incubated at 4° C. for 180 minutes. The cell membrane-[^125I]RTI-55 complex was bound to a GF/B filter mat by vacuum filtration and washed with 50 mmol/L Tris-HCl, pH 7.4. The effect on the receptor was assessed by measuring radioactivity using a scintillation counter.

[3] = Pharmacokinetic study in mice; assay type: in vivo
Method: The test compound was administered to 7-week-old female BALE/c (BALB/cAnN CrlCrlj) mice intravenously (dosage: 1 mg/kg) in a 50% PEG solution (0.01 mol/L HCl) or orally (dosage: 10 mg/kg) in a 0.5% methylcellulose aqueous solution, and blood was collected at the following times: • Intravenous administration: 5 min, 15 min, 30 min, 1 hr, 2 hr, 4 hr, 6 hr, and 24 hr after administration • Oral administration: 15 min, 30 min, 1 hr, 2 hr, 4 hr, 6 hr, and 24 hr after administration
The collected blood was centrifuged at 3000 rpm×10 min using a refrigerated centrifuge set at 4° C., and the obtained plasma was measured by LC-MS. A calibration curve was prepared from the value (peak ratio) obtained by dividing the peak area of the test substance by the peak area of the internal standard substance in MS and the concentration of the plasma calibration curve sample. The concentration in the sample was calculated from the peak ratio and the calibration curve of each sample.

[4] = Solubility test; assay type: physicochemical; conditions: pH 2.0 and pH 3.0 buffers
Method: The solubility was measured for Examples 7, 10, 20, 23, 24, and 30 to 34, Comparative Example 1, and Comparative Example 2. The test compound was added to 10 mmol/L glycine buffer (pH 2.0) and 10 mmol/L citrate buffer (pH 3.0), and the mixture was stored in a thermostatic chamber at 5° C. After standing overnight, the mixture was filtered through a membrane filter, and the concentration of the filtrate was measured by HPLC.
The HPLC measurement conditions are as follows.
HPLC conditions • Column: Acquity UPLC BEH C18, 1.7 μm, 50×2.1 mm • Column temperature: 40° C. • Mobile phase: A: 0.1% trifluoroacetic acid-containing water • B: acetonitrile • A/B (min): 95/5 (0)→0/100 (3.5)→0/100 (4)→95/5 (4.01)→95/5 (5) • Flow rate: 0.8 mL/min • Detection: UV visible detector, measurement wavelength 254 nm • Injection volume: 5 μL or • Column: Acquity UPLC BEH C18, 1.7 μm, 50×2.1 mm • Column temperature: 40° C. • Mobile phase: A: 0.1% trifluoroacetic acid-containing water • B: acetonitrile • A/B (min): • 80/20 (0)→40/60 (3.0)→0/100 (3.5)→0/100 (4)→80/20 (4.01)→80/20 (5) • Flow rate: 0.8 mL/min • Detection: UV visible detector, measurement wavelength 254 nm • Injection volume: 2 μL or • Column: Acquity UPLC BEH C18, 1.7 μm, 50×2.1 mm • Column temperature: 40° C. • Mobile phase: A: 0.1% trifluoroacetic acid-containing water • B: acetonitrile • A/B (min): • 80/20 (0)→40/60 (3.0)→0/100 (3.5)→0/100 (4)→100/0 (4.01)→100/0 (5) • Flow rate: 0.8 mL/min • Detection: UV visible detector, measurement wavelength 254 nm • Injection volume: 3 μL

[5] = system: G-401 cells; test: Cell proliferation inhibition experiment using G-401 cells; assay type: cell-based
Method: G-401 cells (derived from malignant rhabdoid tumor) were obtained from the American Type Culture Collection (ATCC). G-401 cells were cultured in McCoy's 5A medium containing 10% fetal bovine serum and 1% penicillin/streptomycin under conditions of 37° C. and 5% CO2.
500 cells per well were seeded in a 384-well plate. One day after seeding, Examples 1 to 35 were added so that the final concentration of DMSO was 0.1%, and the cells were cultured for 3 days. After the culture was completed, the cell viability was measured using CellTiter-Glo Luminescent Cell Viability Assay (Promega, G7570).

[6] = system: G-401 xenograft; test: Drug efficacy evaluation by intravenous administration using G-401 xenograft mice model; assay type: in vivo; conditions: G-401 xenograft model
Method: as §1, with “as 10 mmol/L glycine buffer” for “as 0.5% methylcellulose”, “solution (pH 2.0)” for “solution”, “was” for “was orally”, “administered via the tail vein at least once” for “administered twice”, “a week” for “a day”, “of 0.015-20” for “of 1-100”
A control administration group administered with only a solvent such as 10 mmol/L glycine buffer solution (pH 2.0) and a test compound administration group were compared, and the antitumor effect was evaluated by calculating T/C from the following equation.

[7] = molecular target: recombinant p300 (Homo sapiens (Human), UniProt Q09472); test: HAT activity inhibition experiment (SensoLyte HAT(p300) Assay Kit); assay type: biochemical
recombinant p300, sequence (Q09472 whole entry): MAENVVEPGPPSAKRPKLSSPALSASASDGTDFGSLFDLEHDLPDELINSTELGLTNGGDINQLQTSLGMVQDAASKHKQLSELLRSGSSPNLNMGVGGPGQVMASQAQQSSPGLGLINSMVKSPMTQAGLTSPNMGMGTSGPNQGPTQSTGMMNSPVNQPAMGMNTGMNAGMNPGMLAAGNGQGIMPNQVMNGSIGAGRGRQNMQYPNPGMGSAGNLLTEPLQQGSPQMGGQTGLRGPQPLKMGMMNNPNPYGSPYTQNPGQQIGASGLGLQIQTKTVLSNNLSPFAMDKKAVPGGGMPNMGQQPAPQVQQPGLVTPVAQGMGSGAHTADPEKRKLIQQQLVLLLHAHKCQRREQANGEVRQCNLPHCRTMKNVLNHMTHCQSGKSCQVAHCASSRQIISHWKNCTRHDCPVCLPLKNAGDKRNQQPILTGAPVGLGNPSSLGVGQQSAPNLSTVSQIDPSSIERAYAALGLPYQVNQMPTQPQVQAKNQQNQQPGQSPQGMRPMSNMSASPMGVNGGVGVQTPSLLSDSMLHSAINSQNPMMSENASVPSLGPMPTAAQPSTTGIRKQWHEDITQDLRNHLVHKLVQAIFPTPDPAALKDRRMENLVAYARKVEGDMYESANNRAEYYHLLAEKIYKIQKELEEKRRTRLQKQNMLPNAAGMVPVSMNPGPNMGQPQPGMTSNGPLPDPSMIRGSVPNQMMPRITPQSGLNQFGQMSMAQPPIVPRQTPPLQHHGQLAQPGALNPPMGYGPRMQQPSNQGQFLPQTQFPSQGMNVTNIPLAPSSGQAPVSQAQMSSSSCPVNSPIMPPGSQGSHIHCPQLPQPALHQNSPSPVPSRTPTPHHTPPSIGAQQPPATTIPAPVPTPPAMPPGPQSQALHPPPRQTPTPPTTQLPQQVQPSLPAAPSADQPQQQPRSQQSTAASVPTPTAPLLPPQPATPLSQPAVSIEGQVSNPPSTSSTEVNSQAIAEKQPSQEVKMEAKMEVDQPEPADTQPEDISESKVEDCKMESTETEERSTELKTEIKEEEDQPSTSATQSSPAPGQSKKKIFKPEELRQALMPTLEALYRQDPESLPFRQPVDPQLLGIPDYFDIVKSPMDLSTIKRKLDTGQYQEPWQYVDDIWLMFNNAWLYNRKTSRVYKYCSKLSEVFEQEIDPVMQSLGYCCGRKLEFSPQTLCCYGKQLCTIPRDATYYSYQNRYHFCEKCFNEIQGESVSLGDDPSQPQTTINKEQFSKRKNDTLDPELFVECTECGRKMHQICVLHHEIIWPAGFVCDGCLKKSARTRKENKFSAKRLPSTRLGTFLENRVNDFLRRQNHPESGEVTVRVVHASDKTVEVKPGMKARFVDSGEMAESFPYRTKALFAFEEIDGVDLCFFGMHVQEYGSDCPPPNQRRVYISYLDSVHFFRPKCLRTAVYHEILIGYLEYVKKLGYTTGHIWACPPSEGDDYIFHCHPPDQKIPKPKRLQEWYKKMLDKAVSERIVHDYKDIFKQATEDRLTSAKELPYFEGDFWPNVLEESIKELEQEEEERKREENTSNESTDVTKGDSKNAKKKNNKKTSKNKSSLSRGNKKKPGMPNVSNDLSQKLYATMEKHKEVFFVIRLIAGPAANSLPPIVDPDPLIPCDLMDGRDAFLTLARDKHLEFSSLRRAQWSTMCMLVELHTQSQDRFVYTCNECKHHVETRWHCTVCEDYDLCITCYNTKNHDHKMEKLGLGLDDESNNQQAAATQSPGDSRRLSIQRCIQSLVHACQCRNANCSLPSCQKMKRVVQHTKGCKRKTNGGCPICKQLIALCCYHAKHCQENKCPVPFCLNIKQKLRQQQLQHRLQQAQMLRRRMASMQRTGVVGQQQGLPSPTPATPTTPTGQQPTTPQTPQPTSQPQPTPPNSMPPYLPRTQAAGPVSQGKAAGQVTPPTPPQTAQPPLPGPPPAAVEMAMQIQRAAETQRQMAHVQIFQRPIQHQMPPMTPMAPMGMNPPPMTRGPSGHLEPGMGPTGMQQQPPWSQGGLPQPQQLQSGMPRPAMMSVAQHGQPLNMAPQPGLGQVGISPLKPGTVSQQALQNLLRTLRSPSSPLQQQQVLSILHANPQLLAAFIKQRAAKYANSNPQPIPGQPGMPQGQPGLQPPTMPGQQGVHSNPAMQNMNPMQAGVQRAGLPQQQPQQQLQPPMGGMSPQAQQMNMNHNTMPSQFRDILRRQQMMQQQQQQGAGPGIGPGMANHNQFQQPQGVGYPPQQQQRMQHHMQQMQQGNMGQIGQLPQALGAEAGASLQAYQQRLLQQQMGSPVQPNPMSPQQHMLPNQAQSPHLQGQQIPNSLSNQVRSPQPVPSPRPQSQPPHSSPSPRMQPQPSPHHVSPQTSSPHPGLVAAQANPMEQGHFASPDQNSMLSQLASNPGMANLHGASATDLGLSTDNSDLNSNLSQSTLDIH
Method: The HAT activity inhibitory ability of HAT inhibitors was evaluated using SensoLyte HAT(p300) Assay Kit (ANASPEC, AS-72172). Specifically, 7.5 μL of the compound of Examples […] diluted with assay buffer was added to 7.5 μL of recombinant p300 solution diluted 10 times with assay buffer, and the mixture was incubated at room temperature for 10 minutes. 7.5 μL of acetyl CoA solution diluted 10 times with assay buffer and 15 μL of histone H3 peptide diluted 10 times with assay buffer were added thereto, and the mixture was incubated at 37° C. for 30 minutes. 37.5 μL of Stop Solution was added to stop the reaction. 75 μL of p300 Developer solution diluted 50 times with assay buffer was added, and the mixture was incubated at room temperature for 30 minutes under light-shielded conditions. The fluorescence at 513 nm when irradiated with 389 nm excitation light was measured using a multiplate reader.

[8] = molecular target: hSERT (Homo sapiens (Human), UniProt P31645); test: Serotonin receptor inhibitory activity evaluation (binding assay, HEK293/hSERT membranes); conditions: off-target
hSERT, sequence (P31645 whole entry): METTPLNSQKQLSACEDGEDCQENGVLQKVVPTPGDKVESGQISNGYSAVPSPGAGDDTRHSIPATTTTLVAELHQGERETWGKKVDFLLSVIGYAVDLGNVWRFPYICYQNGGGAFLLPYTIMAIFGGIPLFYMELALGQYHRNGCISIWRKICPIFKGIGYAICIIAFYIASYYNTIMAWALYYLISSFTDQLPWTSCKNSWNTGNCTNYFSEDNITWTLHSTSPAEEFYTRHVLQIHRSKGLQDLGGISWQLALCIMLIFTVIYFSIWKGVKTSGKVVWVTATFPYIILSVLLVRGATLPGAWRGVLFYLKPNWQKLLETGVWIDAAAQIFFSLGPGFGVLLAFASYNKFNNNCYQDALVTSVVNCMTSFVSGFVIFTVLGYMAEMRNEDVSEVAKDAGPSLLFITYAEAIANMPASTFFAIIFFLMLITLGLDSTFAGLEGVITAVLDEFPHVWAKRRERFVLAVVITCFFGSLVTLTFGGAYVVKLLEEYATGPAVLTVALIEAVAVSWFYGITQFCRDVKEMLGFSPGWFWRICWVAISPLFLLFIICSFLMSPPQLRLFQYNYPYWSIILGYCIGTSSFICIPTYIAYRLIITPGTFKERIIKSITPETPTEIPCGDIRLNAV
Method: The binding evaluation assay was outsourced to Eurofins. Specifically, HEK293/hSERT cells were homogenized in a buffer consisting of 100 mmol/L NaCl, 1 μmol/L Leupeptin, 10 μmol/L PMSF, and 50 mmol/L Tris-HCl (pH7.4). The membrane pellet obtained by centrifugation was resuspended in an incubation buffer consisting of 50 mmol/L Tris-HCl (pH 7.4), 120 mmol/L NaCl, and 5 mmol/L KCl to prepare a membrane preparation. The test compound (1-10 μmol/L DMSO solution), the membrane preparation, and 0.4 nmol/L [^3H]Paroxetin were mixed and incubated at 25° C. for 60 minutes. The cell membrane-[^3H]Paroxetin complex was bound to a GF/B filter mat by vacuum filtration and washed with 50 mmol/L Tris-HCl (pH 7.4). The effect on the receptor was assessed by measuring radioactivity using a scintillation counter.

O=C1N[C@]2(C[C@@H](F)c3cc(-c4cnn(C5CN(C6COC6)C5)c4)ccc32)C(=O)N1CC(=O)N(Cc1ccc(F)cn1)C1(C(F)(F)F)COC1 [Example 7, 2-[(1′S,3′R)-3′-fluoro-5′-{1-[1-(oxetan-3-yl)azetidin-3-yl]-1H-pyrazol-4-yl}-2,5-dioxo-2′,3′-dihydrospiro[imidazolidine-4,1′-inden]-1-yl]-N-[(5-fluoropyridin-2-yl)methyl]-N-[3-(trifluoromethyl)oxetan-3-yl]acetamide]
Antitumor effect, oral administration (in words) [1]: strong antitumor effects
Inhibitory effect on dopamine receptors (in words) [2]: did not show strong inhibitory activity
Pharmacokinetics (in words) [3]: excellent pharmacokinetics
Solubility (in words) [4]: high solubility
Cell proliferation inhibitory effect on G-401 cells (in words) [5]: strong cell proliferation inhibitory effect
Antitumor effect, intravenous administration (in words) [6]: strong antitumor effects
HAT activity inhibition (in words) [7]: strong inhibition of HAT activity
Inhibitory effect on serotonin receptors (in words) [8]: did not show strong inhibitory activity
